The test system of one data set is Podosphaera leucotricha. In words: Podosphaera test (apple)/protective. Type of data set: in vivo. Particulars: protective, application rate 100 g/ha, evaluation 10 days after inoculation, 0% = control, 100% = no infection. As for the experimental part:
(§1) To produce a suitable preparation of active compound, 1 part by weight of active compound is mixed with the stated amounts of solvents and emulsifier, and the concentrate is diluted with water to the desired concentration.
To test for protective activity, young plants are sprayed with the preparation of active compound at the stated application rate. After the spray coating has dried on, the plants are inoculated with an aqueous spore suspension of Podosphaera leucotricha. The plants are then placed in a greenhouse at about 23° C. and a relative atmospheric humidity of about 70%.
(§2) Evaluation is carried out 10 days after the inoculation. 0% means an efficacy which corresponds to that of the control, whereas an efficacy of 100% means that no infection is observed.

Data set [1] is described as follows: log P determination by HPLC on reverse-phase column (C 18), acidic range pH 2.3 (EEC Directive 79/831 Annex V. A8). Type of data set: physicochemical. Particulars: for chromatographic logP: reverse-phase HPLC column (C 18); for logP: Table 1 (I-c). As for the experimental part:
The stated log P values were determined in accordance with EEC Directive 79/831 Annex V. A8 by HPLC (High Performance Liquid Chromatography) on a reverse-phase column (C 18). Temperature: 43° C. Mobile phases for the determination in the acidic range (pH 2.3): 0.1% aqueous phosphoric acid, acetonitrile; linear gradient from 10% acetonitrile to 90% acetonitrile. Calibration was carried out using unbranched alkan-2-ones (having 3 to 16 carbon atoms) with known log P values (determination of the log P values by the retention times using linear interpolation between two successive alkanones).

The next data set has as its system Puccinia recondita. In words: Puccinia test (wheat)/protective. The following applies: 240 h, protective, application rate 500 g/ha, evaluation 10 days after inoculation, 0% = control, 100% = no infection, read-out: Efficacy in %. Type of data set: in vivo. As for the experimental part: (§3) To produce a suitable preparation of active compound, 1 part by weight of active compound is mixed with the stated amounts of solvent and emulsifier, and the concentrate is diluted with water to the desired concentration.
To test for protective activity, young plants are sprayed with the preparation of active compound at the stated application rate. After the spray coating has dried on, the plants are sprayed with a conidia suspension of Puccinia recondita. The plants remain in an incubation cabinet at 20° C. and 100% relative atmospheric humidity for 48 hours. The plants are then placed in a greenhouse at a temperature of about 20° C. and a relative atmospheric humidity of 80%.
as §2

A further data set relates to Venturia inaequalis. In words: Venturia test (apple)/protective. In kind it is in vivo. The following applies: protective, application rate 100 g/ha, evaluation 10 days after inoculation, 0% = control, 100% = no infection. As for the experimental part: as §1
To test for protective activity, young plants are sprayed with the preparation of active compound at the stated application rate. After the spray coating has dried on, the plants ate inoculated with an aqueous conidia suspension of the apple scab pathogen Venturia inaequalis and then remain in an incubation cabinet as about 20° C. and 100% relative atmospheric humidity for 1 day. The plants are then placed in a greenhouse at about 21° C. and a relative atmospheric humidity of about 90%.
as §2

Another data set concerns Botrytis cinerea. In words: Botrytis test (bean)/protective. In kind it is in vivo. The following applies: protective, application rate 500 g/ha, evaluation 2 days after inoculation (size of infected areas), 0% = control, 100% = no infection. As for the experimental part:
as §1
To test for protective activity, young plants are sprayed with the preparation of active compound at the stated application rate. After the spray coating has dried on 2 small pieces of agar colonized by Botrytis cinerea are placed onto each leaf. The inoculated plants are placed in a dark chamber at about 20° C. and 100% relative atmospheric humidity.
2 days after the inoculation, the size of the infected areas on the leaves is evaluated. 0% means an efficacy which corresponds to that of the control, whereas an efficacy of 100% means that no infection is observed.

The next data set concerns Alternaria solani. In words: Alternaria test (tomato)/protective. In kind it is in vivo. The following applies: protective, application rate 750 g/ha, evaluation 7 days after inoculation, 0% = control, 100% = no infection. As for the experimental part: as §3
To test for protective activity, young tomato plants are sprayed with the preparation of active compound at the stated application rate. 1 day after the treatment, the plants are inoculated with a spore suspension of Alternaria solani and then remain at 100% relative atmospheric humidity and 20° C. for 24 h. The plants then remain at 96% relative atmospheric humidity and a temperature of 20° C.
Evaluation is carried out 7 days after the inoculation. 0% means an efficacy which corresponds to that of the control, whereas an efficacy of 100% means that no infection is observed.

Setting [2] is: pH 2.3, Table 1 (I-c), pH 2.3, HPLC C18, 43° C., main diastereomer or, where several values in a cell, the individual diastereomers, read-out: logP.
The mark [3] stands for this setting: pH 2.3, HPLC C18, 43° C., main diastereomer or, where several values in a cell, the individual diastereomers.

Where two headings read alike, the source gives them in different places.

`Cc1nn(C)c(F)c1C(=O)NC1CCCCC1C(C)CC(C)C` (stereo not shown) [I-c-1]: the values for the Efficacy in % in the data set on Podosphaera leucotricha and in the data set with Venturia inaequalis were 88% and 100%, respectively. In data set [1] (setting [2]), the chromatographic logP was 4.15. The pest or weed control at 500 g/ha in the data set on Puccinia recondita is 100%.

For orientation: logP means a log measure of how a compound divides between an organic and an aqueous phase. Consider `Cc1nc(C(F)F)c(C(=O)NC2CCCCC2C(C)CC(C)C)s1` (stereo not shown) [I-c-4, 4-(difluoromethyl)-N-[2-(1,3-dimethylbutyl)cyclohexyl]-2-methyl-1,3-thiazole-5-carboxamide], for which the Efficacy in % in the data set with Podosphaera leucotricha is 100%; with Botrytis cinerea it was 95%; in the data set on Venturia inaequalis, 98%; in the data set with Alternaria solani, 100%. Also, in data set [1] (Example 1, pH 2.3, two values = mixture of diastereomers), the “log P (pH 2.3)” value is recorded as 4.53. This compound also returned a logP in data set [1] (setting [3]) of 4.53. Besides, the chromatographic logP in data set [1] (setting [2]) stood at 4.45; in data set [1] (pH 2.3, text of Example 1, pH 2.3, two values = mixture of diastereomers, read-out: log P (pH 2.3)) it was 4.45. Also, in the data set with Puccinia recondita, the pest or weed control at 500 g/ha worked out at 100%.

As for `CC(C)CC(C)C1CCCCC1NC(=O)c1nccnc1Cl` (stereo not shown) [I-c-5], the Efficacy in % in the data set with Podosphaera leucotricha turned out to be 100%; with Botrytis cinerea, 99%; in the data set with Venturia inaequalis, 100%; in the data set with Alternaria solani, 100%. The compound further registered a logP in data set [1] (setting [3]) of 4.23. For the same compound, in data set [1] (setting [2]), the chromatographic logP is 4.12. For the same compound, the pest or weed control at 500 g/ha with Puccinia recondita is 100%.

As to `CC(C)CC(C)C1CCCCC1NC(=O)c1cn(C)nc1C(F)F` (stereo not shown) [I-c-7], the Efficacy in % in the data set on Podosphaera leucotricha came to 100%; with Botrytis cinerea, 94%; with Venturia inaequalis, 100%; in the data set on Alternaria solani it was 100%. For the same compound, the logP in data set [1] (setting [3]) stood at 4.28. Also, in data set [1] (setting [2]), the chromatographic logP was determined as 3.88. Besides, in the data set with Puccinia recondita, the pest or weed control at 500 g/ha worked out at 100%.

The compound `Cc1nn(C)cc1C(=O)NC1CCCCC1C(C)CC(C)C` (stereo not shown) [I-c-14] returned a logP in data set [1] (setting [3]) of 3.47. In addition, the chromatographic logP in data set [1] (setting [2]) was determined as 3.18. Moreover, the pest or weed control at 500 g/ha with Puccinia recondita stood at 100%. This compound also registered an Efficacy in % in the data set with Alternaria solani of 100%.

Values taken from patent publication US8748471B2, “2-alkyl-cycloalk(en)yl-carboxamides” (priority 2004, dated 2014).
